The test system of assay [1] is HEK293 cells. It counts as cell-based, human.
The test system of assay [2] is HEK293 cells.

Like-named read-outs stand apart in the source and are kept apart here.

The results in this text go back to US20240392315A1, “COMPOSITION FOR CELL ADDITION” (priority 2021, published 2024).

Regarding `CO` [Methanol, methanol], the genome titer in the assay with HEK293 cells [1] (test (4), additive 0.33 v/v %, AAV2 in cells, control 2.40E+07) was determined as 2.94E+07 vg/μL. Moreover, the genome integrity in the assay on HEK293 cells [1] (test (4), additive 0.33 v/v %, AAV2 in cells, control 53.4) was 58.4%.

Regarding `C[S+](C)[O-]` [DMSO, dimethyl sulfoxide], the “TFday 3 VCD” value in the assay with HEK293 cells [2] (test (5), additive 0.57 v/v %, day 3 after transfection, control 4.17E+06) worked out at 4.58E+06 cells/mL. Also, in the assay on HEK293 cells [2] (test (5), additive 0.57 v/v %, day 3 after transfection, control 78.5), the “TF day 3 Viability” value is 81.5%. Also, in the assay on HEK293 cells [2] (when the concentration is low), the “cell growth and substance production” value is reported as “improving”. Besides, the “improving integrity of the genome in produced AAV2 and genome titer (productivity)” value with HEK293 cells [1] (DMSO, Table 8) was “effective”. The compound also yielded a genome titer in the assay with HEK293 cells [1] (test (5), additive 0.57 v/v %, AAV2 produced in cells, control 2.40E+07) of 3.35E+07 vg/μL. Also, the genome integrity with HEK293 cells [1] (test (5), additive 0.57 v/v %, AAV2 produced in cells, control 53.4) is on record as 59.3%.

For the compound `OCC(O)CO` [Glycerol, glycerol], the genome titer was found to be 4.50E+07 vg/μL in the assay with HEK293 cells [1] (test (3), additive 0.73 v/v %, AAV2 in cells, 3 days after transfection, control 2.26E+07); 2.78E+07 vg/μL in the assay on HEK293 cells [1] (test (4), additive 0.38 v/v %, AAV2 in cells, control 2.40E+07); 3.66E+07 vg/μL with HEK293 cells [1] (test (4), additive 1.15 v/v %, AAV2 in cells, control 2.40E+07). In addition, the genome integrity in the assay with HEK293 cells [1] (test (3), additive 0.73 v/v %, AAV2 in cells, control 51.9) turned out to be 58.9%; in the assay with HEK293 cells [1] (test (4), additive 0.38 v/v %, AAV2 in cells, control 53.4), 55.2%; in the assay with HEK293 cells [1] (test (4), additive 1.15 v/v %, AAV2 in cells, control 53.4), 58.5%.
